Experiments:
[1] = molecular target: T1, Dual specificity tyrosine-phosphorylation-regulated kinase 1A (Homo sapiens, UniProt Q13627); test: Inhibition of DYRK1A (unknown origin)
[2] = Displacement of [gamma-33P]-ATP from GSK-3 derived from porcine brain using YRRAAVPPSPSLSRHSSPHQSpEDEEE as substrate incubated for 30 mins by scintillation counting analysis; parameters: species or system Sus scrofa
[3] = molecular target: T1, Dual specificity tyrosine-phosphorylation-regulated kinase 1A; test: Inhibition of GST-fused recombinant human DYRK1A expressed in Escherichia coli using KKISGRLSPIMTEQ as substrate in presence of ATP
[4] = molecular target: T1, Dual specificity tyrosine-phosphorylation-regulated kinase 1A; test: Inhibition of DYRK1A (unknown origin) using KKISGRLSPIMTEQ as substrate incubated for 30 mins in presence of ATP by ADP-Glo assay
[5] = molecular target: T1, Dual specificity tyrosine-phosphorylation-regulated kinase 1A; test: Inhibition of N-terminal 6His-tagged recombinant human DYRK1A ([…] residues) expressed in Escherichia coli BL21(DE3) using RARPGTPALRE as substrate incubated for 60 mins in presence of ATP/NADH by enzymatic assay

Nc1ncc(-c2ccccc2)nc1C(=O)Nc1cnccc1N1CCC(N)CC1
IC50 [1]: 0.039 µM

O=c1c2c(ccc3nc(-c4cccnc4)sc32)ncn1C1CC1
IC50 [2]: 0.068 µM

O=c1c2c(ccc3nc(-c4cnccn4)sc32)ncn1Cc1ccccc1
IC50 [3]: 0.113 µM | IC50 [2]: 6 µM

Nc1ncc(-c2ccccc2F)nc1C(=O)Nc1cnccc1N1CCC(C(=O)O)CC1
IC50 [1]: 0.243 µM

O=C1CCCc2[nH]c3c(Cl)cccc3c21
IC50 [4]: 1.6 µM

O=c1c2c(ccc3nc(-c4cccnc4)sc32)ncn1Cc1ccccc1
IC50 [2]: 3.7 µM

O=C1c2c([nH]c3c(Cl)cccc23)CCC1N1CCCCC1 (centres undefined)
IC50 [4]: > 10 µM

COc1c(CC=C(C)C)c(O)cc2oc(-c3ccc(O)cc3O)cc12 [LICOCOUMARONE]
IC50 [5]: 12.6 µM

Source: ChEMBL document CHEMBL5136986, “DYRK1A inhibitors for disease therapy: Current status and perspectives” (Eur J Med Chem, 2022)
